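Each compound was tested at five concentrations against cells in 96-well plates for 48 hours. Abbreviation: GI50, concentration required for 50% inhibition of growth.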 Active and inactive are the calls of the source. Cut-off read from the data, not from the text of the source: active = GI50 up to about 1.1 µM and inactive = higher.
Experiments:
Test in all cases: NCI tumour cell line growth inhibition, 48 h
[1] = system: CAKI-1
[2] = system: K562
[3] = system: IGROV-1
[4] = system: CCRF-CEM
[5] = system: U-251
[6] = system: SF-268
[7] = system: MOLT-4
[8] = system: A498
[9] = system: HT-29
[10] = system: UACC-257
[11] = system: OVCAR-8
[12] = system: NCI-H460
[13] = system: UO-31
[14] = system: KM12
[15] = system: HL-60
[16] = system: SK-MEL-2
[17] = system: OVCAR-3
[18] = system: SNB-75

| Compound | GI50 [1] | GI50 [2] | GI50 [3] | GI50 [4] | GI50 [5] | GI50 [6] | GI50 [7] | GI50 [8] | GI50 [9] | GI50 [10] | GI50 [11] | GI50 [12] | GI50 [13] | GI50 [14] | GI50 [15] | GI50 [16] | GI50 [17] | GI50 [18] |
| --- | --- | --- | --- | --- | --- | --- | --- | --- | --- | --- | --- | --- | --- | --- | --- | --- | --- | --- |
| O=[N+]([O-])c1ccccc1C1SCc2nc3ccccc3n21 (stereo unspecified) | 78.3 µM (inactive) | 45.5 µM (inactive) | 36.9 µM (inactive) | 69.5 µM (inactive) | 70.6 µM (inactive) | > 100 µM (inactive) | 44 µM (inactive) | 63 µM (inactive) | > 100 µM (inactive) | 46.7 µM (inactive) | > 100 µM (inactive) | 78.9 µM (inactive) | 31.6 µM (inactive) | > 100 µM (inactive) | 74.6 µM (inactive) | > 100 µM (inactive) | – | – |
| NC1=C(NC(=O)Cc2ccccc2F)C(=O)c2ccccc2C1=O | > 100 µM (inactive) | > 100 µM (inactive) | 38.8 µM (inactive) | > 100 µM (inactive) | 36.5 µM (inactive) | 34.6 µM (inactive) | > 100 µM (inactive) | – | 46.7 µM (inactive) | 29.6 µM (inactive) | 39.2 µM (inactive) | 47.2 µM (inactive) | 92.7 µM (inactive) | > 100 µM (inactive) | 88.3 µM (inactive) | 14.3 µM (inactive) | 8.26 µM (inactive) | 18.8 µM (inactive) |
| NC1=C(C(=O)O)C(=O)C(Nc2c(O)cccc2C(=O)O)=CC1=O | > 100 µM (inactive) | > 100 µM (inactive) | > 100 µM (inactive) | – | > 100 µM (inactive) | 1 µM (active) | > 100 µM (inactive) | > 100 µM (inactive) | > 100 µM (inactive) | > 100 µM (inactive) | > 100 µM (inactive) | 10 µM (inactive) | > 100 µM (inactive) | > 100 µM (inactive) | > 100 µM (inactive) | 59.3 µM (inactive) | > 100 µM (inactive) | > 100 µM (inactive) |
| CC1=C(C(=O)Nc2ccccc2C)C(c2ccc(N(C)C)cc2)C(C(=O)Nc2ccccc2C)=C(C)N1 | – | 26.2 µM (inactive) | > 100 µM (inactive) | 31.8 µM (inactive) | > 100 µM (inactive) | 70.5 µM (inactive) | 26.8 µM (inactive) | > 100 µM (inactive) | > 100 µM (inactive) | 71.6 µM (inactive) | 88.5 µM (inactive) | 63.8 µM (inactive) | 55.2 µM (inactive) | 48.4 µM (inactive) | 19 µM (inactive) | 36.2 µM (inactive) | > 100 µM (inactive) | – |
| COc1ccccc1NC(=O)C1=C(C)NC(C)=C(C(=O)Nc2ccccc2OC)C1c1ccccc1[N+](=O)[O-] | – | 20.6 µM (inactive) | 19.7 µM (inactive) | 18.9 µM (inactive) | 14.5 µM (inactive) | 19.8 µM (inactive) | 14.3 µM (inactive) | – | 18.7 µM (inactive) | 19 µM (inactive) | 19.2 µM (inactive) | 16.1 µM (inactive) | 19.4 µM (inactive) | 16.8 µM (inactive) | 20.2 µM (inactive) | 11.4 µM (inactive) | 18.5 µM (inactive) | 42.1 µM (inactive) |
| O=C(O/N=C1/CCCC/C1=C\c1ccccc1)c1ccc(Cl)c(Cl)c1 | 27.3 µM (inactive) | 15.8 µM (inactive) | 21.5 µM (inactive) | 21.8 µM (inactive) | 17.3 µM (inactive) | 11.5 µM (inactive) | 13.3 µM (inactive) | – | 22.4 µM (inactive) | > 100 µM (inactive) | 17.9 µM (inactive) | 40.3 µM (inactive) | 17.9 µM (inactive) | 46.7 µM (inactive) | 14.5 µM (inactive) | > 100 µM (inactive) | 21 µM (inactive) | 27.5 µM (inactive) |
| Cn1c(NC(=O)NC23CC4CC(CC(C4)C2)C3)nc2ccccc21 | 48.6 µM (inactive) | > 100 µM (inactive) | > 100 µM (inactive) | – | 48.8 µM (inactive) | 28.5 µM (inactive) | > 100 µM (inactive) | – | > 100 µM (inactive) | 94.2 µM (inactive) | > 100 µM (inactive) | 38.4 µM (inactive) | > 100 µM (inactive) | > 100 µM (inactive) | > 100 µM (inactive) | 71.3 µM (inactive) | > 100 µM (inactive) | 3.94 µM (inactive) |
| O=C(c1ccccc1)C(C(=O)c1ccccc1)C1(O)C(=O)c2ccccc2C1=O | – | 15.8 µM (inactive) | 53.3 µM (inactive) | 20.4 µM (inactive) | 21 µM (inactive) | 24.7 µM (inactive) | 19.8 µM (inactive) | 47.4 µM (inactive) | 39.7 µM (inactive) | 38.4 µM (inactive) | 25.6 µM (inactive) | – | 36.1 µM (inactive) | 51.5 µM (inactive) | 16.7 µM (inactive) | 6.17 µM (inactive) | 26.6 µM (inactive) | 24.8 µM (inactive) |

— ChEMBL document CHEMBL1201862, “PubChem BioAssay data set” (2004)
